From PubChem BioAssay AID330 (DTP/NCI, 2004)
“And” between values parts separate entries of the source, which are not always exact repeats. Identical values can stand only once. Inconclusive results and toxic doses are left out. Rule for the calls: active = survival T/C of 150% or more; inactive = T/C below 125% in these data.

System: P388 leukemia ip, CD2F1 mice, survival T/C
Assay: NCI In Vivo Anticancer Drug Screen. Data for tumor model P388 Leukemia (intraperitoneal) in CD2F1 (CDF1) mice
Conditions: endpoint: median survival time, higher = longer survival
Outline: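 Mice carrying the transplanted tumor received test compound or vehicle. Survival was recorded in each group, and the value is the treated-group measurement divided by that of the vehicle-treated control group.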

[1] = dose: 50.0 mg/kg/injection, schedule: Q01DX005 (ip), vehicle: saline with Tween-80
[2] = dose: 100.0 mg/kg/injection, schedule: Q01DX005 (ip), vehicle: saline with Tween-80
[3] = dose: 200.0 mg/kg/injection, schedule: Q01DX005 (ip), vehicle: saline with Tween-80
[4] = dose: 50.0 mg/kg/injection, schedule: Q01DX009 (ip), vehicle: saline with Tween-80
[5] = dose: 100.0 mg/kg/injection, schedule: Q01DX009 (ip), vehicle: saline with Tween-80
[6] = dose: 200.0 mg/kg/injection, schedule: Q01DX009 (ip), vehicle: saline with Tween-80
[7] = dose: 50.0 mg/kg/injection, schedule: Q01DX009 (ip), vehicle: saline
[8] = dose: 100.0 mg/kg/injection, schedule: Q01DX009 (ip), vehicle: saline
[9] = dose: 200.0 mg/kg/injection, schedule: Q01DX009 (ip), vehicle: saline
[10] = dose: 400.0 mg/kg/injection, schedule: Q01DX009 (ip), vehicle: saline
[11] = dose: 50.0 mg/kg/injection, schedule: Q01DX009 (ip), vehicle: Klucel (hydroxypropylcellulose) (HPC)
[12] = dose: 200.0 mg/kg/injection, schedule: Q01DX009 (ip), vehicle: Klucel (hydroxypropylcellulose) (HPC)
[13] = dose: 6.25 mg/kg/injection, schedule: Q01DX009 (ip), vehicle: Klucel (hydroxypropylcellulose) (HPC)
[14] = dose: 12.5 mg/kg/injection, schedule: Q01DX009 (ip), vehicle: Klucel (hydroxypropylcellulose) (HPC)
[15] = dose: 25.0 mg/kg/injection, schedule: Q01DX009 (ip), vehicle: Klucel (hydroxypropylcellulose) (HPC)
[16] = dose: 50.0 mg/kg/injection, schedule: Q01DX005 (ip), vehicle: Klucel (hydroxypropylcellulose) (HPC)

Measured: T/C

CC(C)CC1([N+](=O)[O-])CN(C)CC2CCCCN2C1 (centres undefined)
inactive: dose: 25.0 mg/kg/injection, schedule: Q04DX002 (ip), vehicle: water 102 % of control | dose: 50.0 mg/kg/injection, schedule: Q04DX002 (ip), vehicle: water 107 % of control | dose: 100.0 mg/kg/injection, schedule: Q04DX002 (ip), vehicle: saline 102 % of control | dose: 100.0 mg/kg/injection, schedule: Q04DX002 (ip), vehicle: water 99 % of control

O=c1[nH]c2ccc(Cl)cc2[nH]c1=O
inactive: [1] 99 % of control | [2] 100 % of control | [3] 94 % of control

O=C1COC(c2ccccc2O)=NN1CCN1CCOCC1
inactive: [4] 103 % of control | [5] 103 % of control | [6] 94 % of control

C=CCNc1nc(-c2ccc(OC)c(OC)c2)cs1
inactive: dose: 100.0 mg/kg/injection, schedule: Q04DX003 (ip), vehicle: Klucel (hydroxypropylcellulose) (HPC) 100 % of control | dose: 200.0 mg/kg/injection, schedule: Q04DX003 (ip), vehicle: Klucel (hydroxypropylcellulose) (HPC) 103 % of control | dose: 400.0 mg/kg/injection, schedule: Q04DX003 (ip), vehicle: Klucel (hydroxypropylcellulose) (HPC) 100 % of control

COC(=O)NCN(Cc1ccccc1)C(=O)CCCCCN
inactive: dose: 60.0 mg/kg/injection, schedule: Q01DX005 (ip), vehicle: saline with Tween-80 104 % of control | dose: 120.0 mg/kg/injection, schedule: Q01DX005 (ip), vehicle: saline with Tween-80 100 % of control | dose: 240.0 mg/kg/injection, schedule: Q01DX005 (ip), vehicle: saline with Tween-80 98 % of control

NNC(=S)Nc1ccccc1
inactive: dose: 1.25 mg/kg/injection, schedule: Q01DX009 (ip), vehicle: saline with Tween-80 104 % of control | dose: 2.5 mg/kg/injection, schedule: Q01DX009 (ip), vehicle: saline with Tween-80 100 % of control | dose: 5.0 mg/kg/injection, schedule: Q01DX009 (ip), vehicle: saline with Tween-80 95 % of control

c1cc[n+](-c2nc3ccccc3[n-]2)cc1
inactive: dose: 100.0 mg/kg/injection, schedule: Q04DX003 (ip), vehicle: saline 100 % of control | dose: 200.0 mg/kg/injection, schedule: Q04DX003 (ip), vehicle: saline 98 % of control | dose: 400.0 mg/kg/injection, schedule: Q04DX003 (ip), vehicle: saline 100 % of control

Cc1ccc(NCCN(C)C)c2c(=O)c3ccc(O)cc3sc12
inactive: [4] 110 % of control | [5] 110 % of control

O=C(Oc1ccc[nH]c1=O)C1CC1
inactive: dose: 12.5 mg/kg/injection, schedule: Q01DX009 (ip), vehicle: saline 99 % of control and 100 % of control | dose: 25.0 mg/kg/injection, schedule: Q01DX009 (ip), vehicle: saline 101 % of control and 102 % of control | [7] 98 % of control and 108 % of control | [8] 103 % of control and 106 % of control | [9] 107 % of control and 117 % of control | [10] 100 % of control

NC(CC(=O)O)C(=O)O (centres undefined)
inactive: [11] 103 % of control and 105 % of control | dose: 100.0 mg/kg/injection, schedule: Q01DX009 (ip), vehicle: Klucel (hydroxypropylcellulose) (HPC) 105 % of control and 91 % of control | [12] 91 % of control | [9] 100 % of control | [10] 100 % of control | dose: 800.0 mg/kg/injection, schedule: Q01DX009 (ip), vehicle: saline 90 % of control

Oc1ccc(/C=N/NC(=S)NN2CCOCC2)nc1
inactive: dose: 3.12 mg/kg/injection, schedule: Q01DX009 (ip), vehicle: Klucel (hydroxypropylcellulose) (HPC) 110 % of control | [13] 109 % of control | [14] 104 % of control | [15] 111 % of control

O=C(c1ccc(Cl)cc1)n1c(Cl)c(/C=N\Nc2cccc([N+](=O)[O-])c2)c2ccccc21
inactive: dose: 50.0 mg/kg/injection, schedule: Q01DX001 (ip), vehicle: Klucel (hydroxypropylcellulose) (HPC) 86 % of control | dose: 100.0 mg/kg/injection, schedule: Q01DX001 (ip), vehicle: Klucel (hydroxypropylcellulose) (HPC) 86 % of control | dose: 200.0 mg/kg/injection, schedule: Q01DX001 (ip), vehicle: Klucel (hydroxypropylcellulose) (HPC) 87 % of control

ICC1CCCCC1CI (centres undefined)
inactive: [1] 106 % of control | [2] 99 % of control | [3] 104 % of control

O=C(c1ccccc1)C(C(=O)c1ccccc1)S(=O)(=O)c1ccccc1
inactive: [1] 93 % of control | [2] 93 % of control | [3] 91 % of control

CC(=O)OC1C(C)C2CCC13CC=C(C)CC23 (centres undefined)
inactive: [16] 101 % of control | dose: 100.0 mg/kg/injection, schedule: Q01DX005 (ip), vehicle: Klucel (hydroxypropylcellulose) (HPC) 108 % of control | dose: 200.0 mg/kg/injection, schedule: Q01DX005 (ip), vehicle: Klucel (hydroxypropylcellulose) (HPC) 110 % of control

O=Cc1ccc(N=Nc2c(S(=O)(=O)O)cc3cc(S(=O)(=O)O)cc(O)c3c2O)cc1
inactive: [4] 90 % of control | [5] 90 % of control | [6] 100 % of control

CCOC(=O)CNC(=O)Nc1c(C)n(C)n(-c2ccccc2)c1=O
inactive: [7] 103 % of control | [8] 100 % of control | [9] 97 % of control

CCOC(=O)c1c(O)c(Cc2ccccc2)c(=O)n2c1[nH]c1cc(C)c(C)cc12
inactive: dose: 7.5 mg/kg/injection, schedule: Q01DX005 (ip), vehicle: saline with Tween-80 100 % of control | dose: 15.0 mg/kg/injection, schedule: Q01DX005 (ip), vehicle: saline with Tween-80 100 % of control

Cc1cccc(C)c1N=O
inactive: [11] 122 % of control and 124 % of control | [12] 87 % of control

C[C@H]1C[C@@H]2[C@H]([C@@H](O)C[C@@]3(C)[C@H]2CC[C@]3(O)C(=O)CF)[C@@]2(C)C=CC(=O)C=C12
inactive: dose: 10.0 mg/kg/injection, schedule: Q01DX009 (ip), vehicle: saline with Tween-80 104 % of control | dose: 100.0 mg/kg/injection, schedule: Q04DX003 (ip), vehicle: saline with Tween-80 100 % of control | [6] 95 % of control | dose: 200.0 mg/kg/injection, schedule: Q04DX003 (ip), vehicle: saline with Tween-80 100 % of control | dose: 400.0 mg/kg/injection, schedule: Q01DX009 (ip), vehicle: saline with Tween-80 86 % of control | dose: 400.0 mg/kg/injection, schedule: Q04DX003 (ip), vehicle: saline with Tween-80 100 % of control

N#Cc1cc([N+](=O)[O-])cnc1Sc1ncccn1
inactive: [13] 108 % of control | [14] 104 % of control | [15] 90 % of control

C#CC(C)C(C(C)=O)C(=O)c1ccccc1.[C-]#[O+].[C-]#[O+].[C-]#[O+].[C-]#[O+].[C-]#[O+].[C-]#[O+].[Co].[Co] (centres undefined)
inactive: dose: 12.5 mg/kg/injection, schedule: Q01DX005 (ip), vehicle: Klucel (hydroxypropylcellulose) (HPC) 108 % of control | dose: 25.0 mg/kg/injection, schedule: Q01DX005 (ip), vehicle: Klucel (hydroxypropylcellulose) (HPC) 101 % of control | [16] 104 % of control and 95 % of control

CN(C)c1ccc(/C=C/c2ccnnc2)cc1
inactive: [7] 99 % of control | [8] 104 % of control | [9] 100 % of control

O=C1C(Cl)=C(NCC2CCCN3CCCCC23)C(=O)c2ccccc21 (centres undefined)
inactive: dose: 50.0 mg/kg/injection, schedule: Q01DX005 (ip), vehicle: saline 113 % of control | dose: 100.0 mg/kg/injection, schedule: Q01DX005 (ip), vehicle: saline 117 % of control
